The data set can be described thus: Pharmacokinetics of 5-MeO-DMT and bufotenine after inhalation. The data set is classed as in vivo, human. The procedure: Blood samples were obtained at 1; 2; 4; 7; 10; 15; 20; 30; 45 min and 1; 1.5; 2; 3; 4 hours after administration.
PK parameters were generated by algebraic analysis of the concentration versus time plots for each individual. The analysis was carried out using the software Phoenix WinNonlin 6.3.

Structures are written as SMILES.

Regarding `COc1ccc2[nH]cc(CCN(C)C)c2c1` [5-MeO-DMT], where the note is “3 hours after inhalation, 6 mg, 12 mg, 18 mg”, the “detectability in the plasma” value is given as “no longer detectable”. Also, the absorption and distribution entry (inhaled) was “rapid absorption and distribution”.

The record behind these values is patent US20250241895A1 (GH RESEARCH IRELAND LIMITED, priority 2022, published 2025).
